In patent US7700786B2, “Pyrazole derivative, intermediate therefor, processes for producing these, and herbicide containing these as active ingredient” (Sagami Chemical Research Center, priority 2001, dated 2010):

What was measured:
Scirpus juncoides = test: Herbicidal efficacy test by pre-emergence treatment under submergence condition; format: in vivo; conditions: 15th day after treatment, ratings of 1 to 5
Text: (§2) A 1/10,000-are pot was filled with paddy field soil, and, after plowing, seeds of Echinochloa oryzicola, Cyperus difformis, Monochoria vaginalis, Scirpus juncoides, Eleocharis acicularis and other annual broadleaf weeds such as Lindernia procumbens, Rotala indica and Elatine triandra were sown. Rice (oryza sativa) seedlings (cultiver “Koshihikari”) at a 2.5-leaf stage were transplanted and kept under a submergence condition. After one day, the wettable powder or emulsifiable concentrate of the compound of the present invention, prepared according to Preparation Example, was diluted and dropped on a water surface at a predetermined dose.

Cyperus difformis = test: as above; format: in vivo; conditions: 15th day after treatment, ratings of 1 to 5; further: key: 1 shows no influence; 5 shows complete die
Text: as §2

Echinochloa oryzicola = test: as above; format: in vivo; conditions: 15th day after treatment, ratings of 1 to 5
Text: as §2

Eleocharis acicularis = test: as above; format: in vivo; conditions: 15th day after treatment, ratings of 1 to 5; further: key: 1 shows no influence; 5 shows complete die
Text: as §2

Monochoria vaginalis = test: as above; format: in vivo; conditions: 15th day after treatment, ratings of 1 to 5; further: key: 1 shows no influence; 5 shows complete die
Text: as §2

[1] = system: annual broadleaf weeds such as Lindernia procumbens, Rotala indica and Elatine triandra; test: as above; format: in vivo; conditions: 15th day after treatment, ratings of 1 to 5
Text: as §2

Abutilon theophrasti = test: Herbicidal efficacy test by foliar treatment after germination under upland field condition; format: in vivo; conditions: Dc: Digitaria ciliaris (table footnote; method names Abutilon theophrasti), dose 1 kg/ha, rated 1 to 5 on the 14th day after treatment
Echinochloa crus-galli = test: as above; format: in vivo; conditions: dose 1 kg/ha, rated 1 to 5 on the 14th day after treatment
Text: (§1) A vat having an area of 5×10 cm^2 and a depth of 5 cm was filled with upland field soil, and seeds of Chenopodium album, Echinochloa crus-galli, Amaranthus viridis and Abutilon theophrasti were sown thereon and covered with soil by a depth of 0.5 cm. Water was sprayed as required to grow them for 14 days.

Chenopodium album = test: as above; format: in vivo; conditions: dose 1 kg/ha, rated 1 to 5 on the 14th day after treatment; further: key: 1 shows no influence; 5 shows complete die
Text: as §1

Amaranthus viridis = test: as above; format: in vivo; conditions: dose 1 kg/ha, rated 1 to 5 on the 14th day after treatment; further: key: 1 shows no influence; 5 shows complete die
Text: as §1

Structure (SMILES)	Herbicidal efficacy Sj (Scirpus juncoides; dose 0.5 kg/ha)	Herbicidal efficacy Sj (Scirpus juncoides; dose 1 kg/ha)	Herbicidal efficacy Cd (Cyperus difformis; dose 0.5 kg/ha)	Herbicidal efficacy Cd (Cyperus difformis; dose 1 kg/ha)	Herbicidal efficacy Eo (Echinochloa oryzicola; dose 0.5 kg/ha)	Herbicidal efficacy Eo (Echinochloa oryzicola; dose 1 kg/ha)	Herbicidal efficacy Ea (Eleocharis acicularis; dose 0.5 kg/ha)	Herbicidal efficacy Ea (Eleocharis acicularis; dose 1 kg/ha)	Herbicidal efficacy Mv (Monochoria vaginalis; dose 0.5 kg/ha)	Herbicidal efficacy Mv (Monochoria vaginalis; dose 1 kg/ha)	Herbicidal efficacy Blw ([1]; dose 0.5 kg/ha)	Herbicidal efficacy Blw ([1]; dose 1 kg/ha)	Herbicidal activity Dc (Abutilon theophrasti)	Herbicidal activity Ec (Echinochloa crus-galli)	Herbicidal activity Ca (Chenopodium album)	Herbicidal activity Av (Amaranthus viridis)	melting point
CCNC(=S)n1nc(Oc2ncc(C(F)(F)F)cc2Cl)cc1C [Compound 4-17, N-ethyl-3-(3-chloro-5-trifluoromethylpyridin-2-yloxy)-5-methylpyrazole-1-carbothioamide]	4.5	4.8	5	5	5	5	5	5	5	5	4.8	5	–	–	–	–	–
C=CCNC(=O)n1nc(Oc2c(Cl)cc(C(F)(F)F)cc2Cl)cc1C [Compound 3-130]	5	5	5	5	5	5	5	5	5	5	5	5	5	5	5	5	–
CCC(C)NC(=O)n1nc(Oc2ncc(C(F)(F)F)cc2Cl)cc1C (stereo not shown) [Compound 4-30, N-s-butyl-3-(3-chloro-5-trifluoromethylpyridin-2-yloxy)-5-methylpyrazole-1-carboxamide]	–	–	–	–	–	–	–	–	–	–	–	–	5	5	5	5	–
CNC(=S)n1nc(Oc2c(Cl)cc(C(F)(F)F)cc2Cl)cc1C [Compound 3-15]	5	5	5	5	5	5	5	5	5	5	5	5	5	5	5	5	–
Cc1cc(Oc2c(Cl)cc(C(F)(F)F)cc2Cl)nn1C(=O)NCCCl [Compound 3-143]	4	5	5	5	5	5	5	5	5	5	5	5	–	–	–	–	–
CCNC(=O)n1nc(Oc2ccc(C(F)(F)F)cc2[N+](=O)[O-])cc1C [Compound 3-67]	–	–	–	–	–	–	–	–	–	–	–	–	5	4.9	5	5	–
CCNC(=O)n1nc(Oc2ncc(C(F)(F)F)cc2Cl)cc1C [Compound 4-16, N-ethyl-3-(3-chloro-5-trifluoromethylpyridin-2-yloxy)-5-methylpyrazole-1-carboxamide]	4.8	5	5	5	5	5	5	5	5	5	5	5	–	–	–	–	–
Cc1cc(Oc2c(Cl)cc(C(F)(F)F)cc2Cl)nn1C(=O)NC(C)C [Compound 3-89]	5	5	5	5	5	5	5	5	5	5	5	5	5	5	5	5	–
CCONC(=O)n1nc(Oc2c(Cl)cc(C(F)(F)F)cc2Cl)cc1C [Compound 3-158]	5	5	5	5	5	5	5	5	5	5	5	5	5	5	5	5	–
CCCNC(=O)n1nc(Oc2ncc(C(F)(F)F)cc2Cl)cc1C [Compound 4-23, N-propyl-3-(3-chloro-5-trifluoromethylpyridin-2-yloxy)-5-methylpyrazole-1-carboxamide]	4.9	5	5	5	5	5	5	5	5	5	4.8	5	–	–	–	–	–
CCCNC(=O)n1nc(Oc2ccc(C(F)(F)F)cc2[N+](=O)[O-])cc1C [Compound 3-82]	–	–	–	–	–	–	–	–	–	–	–	–	5	3.8	5	5	–
CNC(=O)n1nc(Oc2ncc(C(F)(F)F)cc2Cl)cc1C [Compound 4-6, N-methyl-3-(3-chloro-5-trifluoromethylpyridin-2-yloxy)-5-methylpyrazole-1-carboxamide]	4.6	5	5	5	4.8	5	5	5	5	5	5	5	–	–	–	–	–
CCNC(=O)n1nc(Oc2c(Cl)cc(C(F)(F)F)cc2Cl)cc1CC [Example 163, N-ethyl-3-(2,6-dichloro-4-trifluoromethylphenyloxy)-5-ethylpyrazole-1-carboxamide]	–	–	–	–	–	–	–	–	–	–	–	–	–	–	–	–	86 to 89 °C
CCNC(=O)n1nc(Oc2ncc(Cl)cc2Cl)cc1C [Compound 4-15, N-ethyl-3-(3,5-dichloropyridin-2-yloxy)-5-methylpyrazole-1-carboxamide]	–	–	–	–	–	–	–	–	–	–	–	–	–	–	–	–	74 to 76 °C
Cc1cc(Oc2ncc(C(F)(F)F)cc2Cl)nn1C(=O)N(C(C)C)C(C)C [Compound 4-27, N,N-diisopropyl-3-(3-chloro-5-trifluoromethylpyridin-2-yloxy)-5-methylpyrazole-1-carboxamide]	–	–	–	–	–	–	–	–	–	–	–	–	–	–	–	–	58 to 60 °C
